Measured values reported in BindingDB's records for doi:10.1016/s0960-894x(99)00243-7 (Eisai Research Institute, 1999).
Where “and” joins values, the source holds several entries; their conditions need not be identical. Equal entries are not always repeated.

Key:
[1] = Evaluated for cytotoxicity using P388/VMDRC.04 cells (a subline of P388 murine leukemia cells expressing human recombinant human P-glycoprotein) in the absence of 10 nM vincristine
[2] = Multidrug-resistant reversal activity using P388/VMDRC.04 cells (a subline of P388 murine leukemia cells expressing human recombinant human P-glycoprotein) in the presence of 10 nM vincristine
[3] = Evaluated for cytotoxicity using P388/VMDRC.04 cells (a subline of P388 murine leukemia cells expressing human recombinant human P-glycoprotein) in the absence of 10 nM vincristine; remark: listed apart in the source

Row | Compound | IC50 [2] | IC50 [1] [µM] | IC50 [3] [µM]
1 | CCCCCCC[C@@H]1CC(=O)O[C@@H](C(C)C)C(=O)N(C)[C@@H](Cc2ccccc2)[C@H](O)CC(=O)O1 | – | 24 | 6.2
2 | CCCCCCC[C@@H]1CC(=O)O[C@@H](C(C)C)C(=O)N(C)[C@@H](Cc2ccccc2)[C@H](OCOC)CC(=O)O1 | – | 34.4 | 6
3 | CCCCCCC[C@H]1OC(=O)C[C@@H](O)[C@H](Cc2ccccc2)N(C)C(=O)COC(=O)[C@H]1C | – | 22.5 | 5.8
4 | CC(C)[C@@H]1OC(=O)[C@@H](C)COC(=O)C[C@@H](O)[C@H](Cc2ccccc2)N(C)C1=O | – | – | 21.9
5 | CCCCCCC[C@H]1OC(=O)CC[C@H](Cc2ccccc2)N(C)C(=O)[C@H](C(C)C)OC(=O)[C@H]1C | – | 33.7 | 6
6 | COCO[C@@H]1CC(=O)OC[C@H](C)C(=O)O[C@@H](C(C)C)C(=O)N(C)[C@H]1Cc1ccccc1 | – | > 100 | 10.4
7 | COC(=O)C[C@@H](O)[C@H](Cc1ccccc1)N(C)C(=O)OCc1ccccc1 | – | > 89 | 17.1
8 | CCCCCCC[C@H]1OC(=O)C[C@@H](OCOC)[C@H](Cc2ccccc2)N(C)C(=O)COC(=O)[C@H]1C | – | 15.1 | 2.3
9 | CC(C)[C@@H]1OC(=O)[C@@H](C)[C@@H](C)OC(=O)C[C@@H](O)[C@H](Cc2ccccc2)N(C)C1=O | – | > 100 | 15
10 | CCCCCCC[C@H]1OC(=O)C[C@@H](OCOC)[C@H](Cc2ccccc2)N(C)C(=O)[C@H](C(C)C)OC(=O)[C@H]1C | – | – | 6.1
11 | COCO[C@@H]1CC(=O)O[C@H](C)[C@H](C)C(=O)O[C@@H](C(C)C)C(=O)N(C)[C@H]1Cc1ccccc1 | – | > 75 | 7.5
12 | CCCC[C@H]1OC(=O)C[C@H](OCOC)[C@H](Cc2ccccc2)N(C)C(=O)COC(=O)[C@H]1C | – | – | 11.7

More lines, main results first:

Row | IC50 [2] | Compound | IC50 [1] [µM] | IC50 [3] [µM]
13 | 5.5 µM and 5.4 µM | CCCCCCC[C@H]1OC(=O)C[C@H](OCOC)[C@H](Cc2ccccc2)N(C)C(=O)[C@H](C(C)C)OC(=O)[C@H]1C | 41.5 | –
14 | 42.7 µM | COCO[C@H]1CC(=O)O[C@H](C)[C@H](C)C(=O)OCC(=O)N(C)[C@H]1Cc1ccccc1 | > 100 | –
15 | 18.1 µM | CCCC[C@H]1OC(=O)C[C@H](O)[C@H](Cc2ccccc2)N(C)C(=O)COC(=O)[C@H]1C | > 80 | –
16 | 5.7 µM | CCCCCCC[C@H]1OC(=O)C[C@H](O)[C@H](Cc2ccccc2)N(C)C(=O)[C@H](C(C)C)OC(=O)[C@H]1C | 42.2 | –
17 | 5.6 µM | CCCCCCC[C@H]1OC(=O)C[C@H](OCOC)[C@H](Cc2ccccc2)N(C)C(=O)C(C)(C)OC(=O)[C@H]1C | 20 | –
18 | 14.9 µM | COCO[C@H](CC(=O)OC)[C@H](Cc1ccccc1)N(C)C(=O)OCc1ccccc1 | > 86 | –
19 | 6.2 µM | CCCCCCC[C@H]1OC(=O)C[C@@H](O)[C@H](Cc2ccccc2)N(C)C(=O)[C@H](C)OC(=O)[C@H]1C | 27.1 | –
20 | 4.3 µM | CCCCCCC[C@H]1OC(=O)C[C@H](O)[C@H](Cc2ccccc2)N(C)C(=O)C(C)(C)OC(=O)[C@H]1C | 28.4 | –
21 | > 100 µM | C[C@@H]1C(=O)OCC(=O)N(C)[C@@H](Cc2ccccc2)[C@@H](O)CC(=O)O[C@@H]1C | > 100 | –
22 | 16 µM | CCCCCCC[C@@H](O)[C@H](C)C(=O)O[C@H](C(=O)OC)C(C)C | > 83 | –
23 | 5.9 µM | CCCCCCC[C@H]1OC(=O)C[C@@H](OCOC)[C@H](Cc2ccccc2)N(C)C(=O)[C@H](C)OC(=O)[C@H]1C | 19.3 | –
24 | 4.8 µM | CCCCCCC[C@H]1OC(=O)C[C@@H](O)[C@H](Cc2ccccc2)N(C)C(=O)[C@H](C(C)C)OC(=O)[C@H]1C [HAPALOSIN] | 14.8 | –
